Measurements: patent US12570659B2, “Bicyclic heteroaryl compounds useful as IRAK4 inhibitors” (BRISTOL-MYERS SQUIBB COMPANY, priority 2019, dated 2026)

Legend:
IRAK4 = IRAK4 (Homo sapiens (Human), UniProt Q9NWZ3); assay: IRAK4 Inhibition Assay; type: biochemical; conditions: ATP 500 μM; IRAK4 0.6 nM; 60 min room temperature
Description: IRAK4 Inhibition Assay The assays were performed in U-bottom 384-well plates. […] The reaction was initiated by the combination of IRAK4 with substrates and test compounds. The reaction mixture was incubated at room temperature for 60 min. and terminated by adding 45 μL of 35 mM EDTA to each sample. The reaction mixture was analyzed on the Caliper LABCHIP® 3000 (Caliper, Hopkinton, MA) by electrophoretic separation of the fluorescent substrate and phosphorylated product. Inhibition data were calculated by comparison to no enzyme control reactions for 100% inhibition and vehicle-only reactions for 0% inhibition.

JAK3 kinase = JAK3 kinase (Homo sapiens (Human), UniProt P52333); assay: JAK3 Homogeneous Time Resolved Fluorescence (HTRF) Assay; type: binding; conditions: for IC50: competition binding with fluorescein-labeled ATP competitive probe; for Ratio of JAK3 IC50 to IRAK4 IC50: selectivity for IRAK4 over JAK3
JAK3 kinase, sequence (P52333 whole entry): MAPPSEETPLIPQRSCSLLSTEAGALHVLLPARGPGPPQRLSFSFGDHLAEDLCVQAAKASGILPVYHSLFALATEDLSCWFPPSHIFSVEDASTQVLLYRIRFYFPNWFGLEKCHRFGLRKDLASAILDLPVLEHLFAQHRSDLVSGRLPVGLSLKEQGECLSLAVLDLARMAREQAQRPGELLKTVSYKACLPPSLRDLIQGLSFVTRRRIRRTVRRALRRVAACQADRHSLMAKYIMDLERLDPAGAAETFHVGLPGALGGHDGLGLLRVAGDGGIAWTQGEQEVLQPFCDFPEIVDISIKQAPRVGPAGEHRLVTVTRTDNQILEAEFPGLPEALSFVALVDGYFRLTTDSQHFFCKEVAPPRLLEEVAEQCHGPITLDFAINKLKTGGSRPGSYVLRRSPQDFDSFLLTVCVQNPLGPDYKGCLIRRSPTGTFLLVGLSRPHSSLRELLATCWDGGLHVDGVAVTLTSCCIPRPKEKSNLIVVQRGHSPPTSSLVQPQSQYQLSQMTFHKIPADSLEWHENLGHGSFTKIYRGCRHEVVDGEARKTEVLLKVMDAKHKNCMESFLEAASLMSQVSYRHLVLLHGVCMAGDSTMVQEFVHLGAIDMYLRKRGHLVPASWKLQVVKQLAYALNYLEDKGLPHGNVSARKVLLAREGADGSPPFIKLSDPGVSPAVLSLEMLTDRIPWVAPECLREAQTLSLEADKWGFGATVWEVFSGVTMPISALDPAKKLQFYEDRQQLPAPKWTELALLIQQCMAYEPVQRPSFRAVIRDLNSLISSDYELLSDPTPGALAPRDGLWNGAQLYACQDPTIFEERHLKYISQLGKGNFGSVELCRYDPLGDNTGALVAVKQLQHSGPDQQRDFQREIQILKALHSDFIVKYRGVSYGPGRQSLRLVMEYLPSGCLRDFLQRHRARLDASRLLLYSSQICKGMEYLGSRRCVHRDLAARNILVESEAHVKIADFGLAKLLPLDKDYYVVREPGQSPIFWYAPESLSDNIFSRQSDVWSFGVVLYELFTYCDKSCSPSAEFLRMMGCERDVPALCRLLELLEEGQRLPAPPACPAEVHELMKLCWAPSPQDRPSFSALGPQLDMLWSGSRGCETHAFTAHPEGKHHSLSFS
Description: JAK3 Homogeneous Time Resolved Fluorescence (HTRF) Assay
A time resolved FRET-based competition binding assay was used to assess test article binding to JAK3 kinase. His-tagged or GST-tagged kinase at a concentration of 1 nM was incubated with 0.2 nM Tb-labeled detection antibody (anti-His or anti-GST), test compound, and fluorescein-labeled ATP competitive probe at a concentration corresponding to the probe's equilibrium dissociation constant for one hour. Fluorescence at 495 nm and 520 nm was measured using an EnVision microplate reader to quantify FRET between Tb-labeled detection antibody and fluorescein-labeled probe. Background subtracted FRET ratios were normalized to the maximum signal obtained in the absence of test compound. These values were converted to a percent inhibition. Percent inhibition was determined for test compounds at 11 concentrations. The IC50, defined as the concentration of the competing test compound needed to reduce specific binding of the probe by 50%, was calculated using the 4 parameter logistic equation to fit the data.

IRAK4, sequence (Q9NWZ3 whole entry, species assumed): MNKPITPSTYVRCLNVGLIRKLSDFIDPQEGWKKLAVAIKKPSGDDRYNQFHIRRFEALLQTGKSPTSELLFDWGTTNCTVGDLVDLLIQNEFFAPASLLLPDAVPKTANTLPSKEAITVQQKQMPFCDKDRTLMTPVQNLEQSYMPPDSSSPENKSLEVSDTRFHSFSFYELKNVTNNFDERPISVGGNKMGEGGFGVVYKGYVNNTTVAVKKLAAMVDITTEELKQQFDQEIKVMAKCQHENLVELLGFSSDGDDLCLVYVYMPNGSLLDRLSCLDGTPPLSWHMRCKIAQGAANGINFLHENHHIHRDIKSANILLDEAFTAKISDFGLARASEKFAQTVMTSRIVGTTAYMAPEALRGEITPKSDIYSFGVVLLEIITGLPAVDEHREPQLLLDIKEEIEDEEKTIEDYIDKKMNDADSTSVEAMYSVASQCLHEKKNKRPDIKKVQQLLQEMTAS

SMILES	IC50 (IRAK4) [nM]	IC50 (JAK3 kinase) [nM]	Ratio of JAK3 IC50 to IRAK4 IC50 (JAK3 kinase)
CC(C)Nc1c(C(=O)NC[C@@H](F)C(C)(C)O)cnn2cc(-c3cncnc3)cc12 [Example 4, (R)—N-(2-fluoro-3-hydroxy-3-methylbutyl)-4-(isopropylamino)-6-(pyrimidin-5-yl)pyrrolo[1,2-b]pyridazine-3-carboxamide]	19	> 50000	>2632
CC(C)(O)[C@H](F)CNC(=O)c1cnn2cc(-c3cccnc3)cc2c1NC1CCOCC1 [Example 6, (R)—N-(2-fluoro-3-hydroxy-3-methylbutyl)-6-(pyridin-3-yl)-4-((tetrahydro-2H-pyran-4-yl)amino) pyrrolo[1,2-b] pyridazine-3-carboxamide]	54	> 50000	>926
CC(C)Nc1c(C(=O)NC[C@@H](F)C(C)(C)O)cnn2cc(-c3cccnc3F)cc12 [Example 7, (R)—N-(2-fluoro-3-hydroxy-3-methylbutyl)-6-(2-fluoropyridin-3-yl)-4-(isopropylamino)pyrrolo[1,2-b]pyridazine-3-carboxamide]	6.4	> 10000	>1563
CC(C)(O)[C@H](F)CNC(=O)c1cnn2cc(-c3cccnc3F)cc2c1NC1CCOCC1 [Example 8, (R)—N-(2-fluoro-3-hydroxy-3-methylbutyl)-6-(2-fluoropyridin-3-yl)-4-((tetrahydro-2H-pyran-4-yl)amino)pyrrolo[1,2-b]pyridazine-3-carboxamide]	25	> 50000	>2000
CC(C)(O)[C@H](F)CNC(=O)c1cnn2cc(-c3ccncc3)cc2c1NC1CCOCC1 [Example 9, (R)—N-(2-fluoro-3-hydroxy-3-methylbutyl)-6-(pyridin-4-yl)-4-((tetrahydro-2H-pyran-4-yl)amino) pyrrolo[1,2-b] pyridazine-3-carboxamide]	17	> 50000	>2941
COc1ccc(-c2cc3c(NC4CCOCC4)c(C(=O)NC[C@@H](F)C(C)(C)O)cnn3c2)cn1 [Example 10, (R)—N-(2-fluoro-3-hydroxy-3-methylbutyl)-6-(6-methoxypyridin-3-yl)-4-((tetrahydro-2H-pyran-4-yl)amino)pyrrolo[1,2-b]pyridazine-3-carboxamide]	57	> 10000	>175
COc1cc(-c2cc3c(NC4CCOCC4)c(C(=O)NC[C@@H](F)C(C)(C)O)cnn3c2)ccn1 [Example 11, (R)—N-(2-fluoro-3-hydroxy-3-methylbutyl)-6-(2-methoxypyridin-4-yl)-4-((tetrahydro-2H-pyran-4-yl)amino)pyrrolo[1,2-b]pyridazine-3-carboxamide]	86	> 50000	>581
CC(C)(O)[C@H](F)CNC(=O)c1cnn2cc(-c3ccc(C#N)c(F)c3)cc2c1NC1CCOCC1 [Example 12, (R)-6-(4-cyano-3-fluorophenyl)-N-(2-fluoro-3-hydroxy-3-methylbutyl)-4-((tetrahydro-2H-pyran-4-yl)amino)pyrrolo[1,2-b]pyridazine-3-carboxamide]	250	> 50000	>200
CC(C)Nc1c(C(=O)NC[C@@H](F)C(C)(C)O)cnn2cc(-c3ccc(F)cc3)cc12 [Example 13, (R)—N-(2-fluoro-3-hydroxy-3-methylbutyl)-6-(4-fluorophenyl)-4-(isopropylamino)pyrrolo[1,2-b]pyridazine-3-carboxamide]	29	> 50000	>1724
CC(C)Nc1c(C(=O)NC[C@@H](F)C(C)(C)O)cnn2cc(-c3cccc(CN4CCOCC4)c3)cc12 [Example 14, (R)—N-(2-fluoro-3-hydroxy-3-methylbutyl)-4-(isopropylamino)-6-(3-(morpholinomethyl)phenyl) pyrrolo[1,2-b]pyridazine-3-carboxamide]	1670	> 10000	>6
CC(C)Nc1c(C(=O)NC[C@@H](F)C(C)(C)O)cnn2cc(-c3cnc(N)nc3)cc12 [Example 15, (R)-6-(2-aminopyrimidin-5-yl)-N-(2-fluoro-3-hydroxy-3-methylbutyl)-4-(isopropylamino) pyrrolo[1,2-b]pyridazine-3-carboxamide]	22	> 50000	>2273
CC(C)Nc1c(C(=O)NC[C@@H](F)C(C)(C)O)cnn2cc(-c3nccs3)cc12 [Example 17, (R)—N-(2-fluoro-3-hydroxy-3-methylbutyl)-4-(isopropylamino)-6-(thiazol-2-yl)pyrrolo[1,2-b]pyridazine-3-carboxamide]	6.3	–	–
CC(C)(O)[C@H](F)CNC(=O)c1cnn2cc(-c3ccccc3)cc2c1NC1CCCC1 [Example 29, (R)-4-(cyclopentylamino)-N-(2-fluoro-3-hydroxy-3-methylbutyl)-6-phenylpyrrolo[1,2-b] pyridazine-3-carboxamide]	180	–	–
CNC(=O)[C@H]1CC[C@H](NC(=O)c2cnn3cc(-c4ccc(C#N)nc4)cc3c2NC(C)C)CC1 [Example 94, 6-(6-cyanopyridin-3-yl)-4-(isopropylamino)-N-((1r,4r)-4-(methylcarbamoyl)cyclohexyl) pyrrolo[1,2-b]pyridazine-3-carboxamide]	14	–	–
CNC(=O)[C@H]1CC[C@H](NC(=O)c2cnn3cc(-c4ccc(C(N)=O)nc4)cc3c2NC(C)C)CC1 [Example 95, 6-(6-carbamoylpyridin-3-yl)-4-(isopropylamino)-N-((1r,4r)-4-(methylcarbamoyl)cyclohexyl)pyrrolo[1,2-b]pyridazine-3-carboxamide]	35	–	–
CNC(=O)c1cnc2cc(-c3ccccc3)nn2c1N[C@H](CO)Cc1ccccc1 [Example 116, (S)-7-((1-hydroxy-3-phenylpropan-2-yl)amino)-N-methyl-2-phenylpyrazolo[1,5-a]pyrimidine-6-carboxamide]	1620	–	–
CNC(=O)c1cnc2cc(-c3ccccc3)nn2c1NC1CCCCC1 [Example 117, 7-(cyclohexylamino)-N-methyl-2-phenylpyrazolo[1,5-a]pyrimidine-6-carboxamide]	5570	–	–
CNC(=O)c1cnc2cc(-c3ccc(C#N)cc3)nn2c1NC(C)C [Example 118, 2-(4-cyanophenyl)-7-(isopropylamino)-N-methylpyrazolo[1,5-a] pyrimidine-6-carboxamide]	240	–	–
CNC(=O)c1cnc2cc(-c3ccnc(N4CCOCC4)c3)nn2c1NC(C)C [Example 119, 7-(isopropylamino)-N-methyl-2-(2-morpholinopyridin-4-yl)pyrazolo[1,5-a]pyrimidine-6-carboxamide]	2930	–	–
CNC(=O)c1cnc2cc(-c3ccncc3)nn2c1NC(C)C [Example 120, 7-(isopropylamino)-N-methyl-2-(pyridin-4-yl)pyrazolo[1,5-a]pyrimidine-6-carboxamide]	410	–	–
CNC(=O)c1cnc2cc(-c3ccc4ncsc4c3)nn2c1NC(C)C [Example 121, 2-(benzo[d]thiazol-6-yl)-7-(isopropylamino)-N-methylpyrazolo[1,5-a]pyrimidine-6-carboxamide]	590	–	–
CC(C)Nc1c(C(=O)NC[C@@H](F)C(C)(C)O)cnc2cc(-c3nccs3)nn12 [Example 158, (R)—N-(2-fluoro-3-hydroxy-3-methylbutyl)-7-(isopropylamino)-2-(thiazol-2-yl)pyrazolo[1,5-a]pyrimidine-6-carboxamide]	20	–	–
